{
  "source": "paper PMC5218480",
  "about": "(PLoS ONE, 2017)",
  "test_system": "MV-4-11 cells",
  "assay": "Gene expression microarray analysis (Affymetrix PrimeView) and GSEA",
  "format": "cell-based, human",
  "set-up": "RFU PODN (11730768_x_at) / Fold change /veh PODN (11730768_x_at) / RFU LINC00158 (11744669_a_at) / Fold change /veh LINC00158 (11744669_a_at) / RFU DUSP10 (11751237_a_at) / Fold change /veh DUSP10 (11751237_a_at) / RFU ID3 (11757404_x_at) / Fold change /veh ID3 (11757404_x_at) / RFU PLEKHG5 (11737974_s_at) / Fold change /veh PLEKHG5 (11737974_s_at) / RFU LRRC4B (11730491_at) / Fold change /veh LRRC4B (11730491_at) / RFU GIMAP4 (11747438_a_at) / Fold change /veh GIMAP4 (11747438_a_at) / RFU KRT8 (11758183_x_at) / Fold change /veh KRT8 (11758183_x_at) / RFU CNN1 (11734310_a_at) / Fold change /veh CNN1 (11734310_a_at) / RFU VPS37D (11726825_at) / Fold change /veh VPS37D (11726825_at) / RFU C10orf10 (11716522_x_at) / Fold change /veh C10orf10 (11716522_x_at) / RFU KIR2DL2 /// KIR2DL4 /// KIR2DL5A /// KIR2DL5B /// KIR2DS1 /// KIR2DS2 /// KIR2DS3 /// KIR2DS4 /// KIR3DL3 /// KIR3DL3 /// KIR3DS1 (11738374_at) / Fold change /veh KIR2DL2 /// KIR2DL4 /// KIR2DL5A /// KIR2DL5B /// KIR2DS1 /// KIR2DS2 /// KIR2DS3 /// KIR2DS4 /// KIR3DL3 /// KIR3DL3 /// KIR3DS1 (11738374_at) / RFU C1QL1 (11718748_at) / Fold change /veh C1QL1 (11718748_at) / RFU TMPRSS4 (11747572_a_at) / Fold change /veh TMPRSS4 (11747572_a_at) / RFU HAMP (11756126_x_at) / Fold change /veh HAMP (11756126_x_at) / RFU RNFT2 (11725882_a_at) / Fold change /veh RNFT2 (11725882_a_at) / RFU NR4A2 (11747474_a_at) / Fold change /veh NR4A2 (11747474_a_at) / RFU ABCC12 (11746883_a_at) / Fold change /veh ABCC12 (11746883_a_at) / RFU TMEM136 (11760407_x_at) / Fold change /veh TMEM136 (11760407_x_at) / RFU CLDN22 /// WWC2 (11732394_at) / Fold change /veh CLDN22 /// WWC2 (11732394_at) / RFU HLA-DPB1 (11760878_x_at) / Fold change /veh HLA-DPB1 (11760878_x_at) / RFU SPINT1 (11716480_a_at) / Fold change /veh SPINT1 (11716480_a_at) / RFU GAP43 (11754022_s_at) / Fold change /veh GAP43 (11754022_s_at) / RFU A4GNT (11735810_at) / Fold change /veh A4GNT (11735810_at) / RFU PRB3 (11715151_x_at) / Fold change /veh PRB3 (11715151_x_at) / RFU TUBB4B (11761932_at) / Fold change /veh TUBB4B (11761932_at) / RFU CAPN14 (11732068_a_at) / Fold change /veh CAPN14 (11732068_a_at) / RFU TMCC2 (11721928_a_at) / Fold change /veh TMCC2 (11721928_a_at) / RFU IRGQ (11745062_a_at) / Fold change /veh IRGQ (11745062_a_at) / RFU FAM174B (11720279_a_at) / Fold change /veh FAM174B (11720279_a_at) / RFU TMPRSS4 (11748680_a_at) / Fold change /veh TMPRSS4 (11748680_a_at) / RFU FAM212B (11763350_a_at) / Fold change /veh FAM212B (11763350_a_at) / RFU PLEKHG5 (11743358_a_at) / Fold change /veh PLEKHG5 (11743358_a_at) / RFU ZSCAN30 (11745921_a_at) / Fold change /veh ZSCAN30 (11745921_a_at) / RFU CMKLR1 (11741424_a_at) / Fold change /veh CMKLR1 (11741424_a_at) / RFU LOC101060620 /// MAPK8IP1 (11723275_at) / Fold change /veh LOC101060620 /// MAPK8IP1 (11723275_at) / RFU SPTSSB (11747773_x_at) / Fold change /veh SPTSSB (11747773_x_at) / RFU PRSS12 (11739890_at) / Fold change /veh PRSS12 (11739890_at) / RFU BIN1 (11741810_x_at) / Fold change /veh BIN1 (11741810_x_at) / RFU WNT11 (11732464_a_at) / Fold change /veh WNT11 (11732464_a_at) / RFU C10orf10 (11716521_a_at) / Fold change /veh C10orf10 (11716521_a_at) / RFU C5orf56 (11738089_at) / Fold change /veh C5orf56 (11738089_at) / RFU CYB561 (11721691_x_at) / Fold change /veh CYB561 (11721691_x_at) / RFU ANKRD19P (11752326_a_at) / Fold change /veh ANKRD19P (11752326_a_at) / RFU OR2T12 /// OR2T33 /// OR2T8 (11738714_s_at) / Fold change /veh OR2T12 /// OR2T33 /// OR2T8 (11738714_s_at) / RFU VCAN (11748164_a_at) / Fold change /veh VCAN (11748164_a_at) / RFU JSRP1 (11732532_at) / Fold change /veh JSRP1 (11732532_at) / RFU KRTAP10-11 (11738290_x_at) / Fold change /veh KRTAP10-11 (11738290_x_at) / RFU MYO3A (11730013_a_at) / Fold change /veh MYO3A (11730013_a_at) / RFU EBF3 (11725865_a_at) / Fold change /veh EBF3 (11725865_a_at) / RFU CAMK2N1 (11719241_x_at) / Fold change /veh CAMK2N1 (11719241_x_at) / RFU C5orf56 (11738088_a_at) / Fold change /veh C5orf56 (11738088_a_at) / RFU OLFML3 (11715873_a_at) / Fold change /veh OLFML3 (11715873_a_at) / RFU LOC100653217 /// NTM (11731650_a_at) / Fold change /veh LOC100653217 /// NTM (11731650_a_at) / RFU MAPK11 (11762145_a_at) / Fold change /veh MAPK11 (11762145_a_at) / RFU FIZ1 (11724087_x_at) / Fold change /veh FIZ1 (11724087_x_at) / RFU OASL (11726364_x_at) / Fold change /veh OASL (11726364_x_at) / RFU SOX15 (11748057_x_at) / Fold change /veh SOX15 (11748057_x_at) / RFU CD79A (11719716_a_at) / Fold change /veh CD79A (11719716_a_at) / RFU HIST1H1D (11736915_at) / Fold change /veh HIST1H1D (11736915_at) / RFU CASKIN2 (11723855_a_at) / Fold change /veh CASKIN2 (11723855_a_at) / RFU LOC730098 (11760151_x_at) / Fold change /veh LOC730098 (11760151_x_at) / RFU OR4N2 (11742367_at) / Fold change /veh OR4N2 (11742367_at) / RFU PRRT2 (11749266_a_at) / Fold change /veh PRRT2 (11749266_a_at) / RFU SNX32 (11753110_a_at) / Fold change /veh SNX32 (11753110_a_at) / RFU CDHR5 (11726645_a_at) / Fold change /veh CDHR5 (11726645_a_at) / RFU RCAN1 (11760418_a_at) / Fold change /veh RCAN1 (11760418_a_at) / RFU FAM167A (11723789_a_at) / Fold change /veh FAM167A (11723789_a_at) / RFU FAM26E (11764081_at) / Fold change /veh FAM26E (11764081_at) / RFU ISYNA1 (11749810_s_at) / Fold change /veh ISYNA1 (11749810_s_at) / RFU ACY1 (11761880_at) / Fold change /veh ACY1 (11761880_at) / RFU 11764098_at / Fold change /veh 11764098_at / RFU SAMD14 (11745864_x_at) / Fold change /veh SAMD14 (11745864_x_at) / RFU NPB (11741838_a_at) / Fold change /veh NPB (11741838_a_at) / RFU TMPRSS6 (11731388_a_at) / Fold change /veh TMPRSS6 (11731388_a_at) / RFU KRTAP10-2 (11738614_at) / Fold change /veh KRTAP10-2 (11738614_at) / RFU ARHGAP8 /// PRR5-ARHGAP8 (11727945_x_at) / Fold change /veh ARHGAP8 /// PRR5-ARHGAP8 (11727945_x_at) / RFU KRTAP5-7 /// NADSYN1 (11734609_at) / Fold change /veh KRTAP5-7 /// NADSYN1 (11734609_at) / RFU RASL12 (11751679_a_at) / Fold change /veh RASL12 (11751679_a_at) / RFU CDKN2B (11736163_a_at) / Fold change /veh CDKN2B (11736163_a_at) / RFU PRF1 (11729649_at) / Fold change /veh PRF1 (11729649_at) / RFU, ZNF638 /// ZNF638-IT1 / Fold change vs veh, ZNF638 /// ZNF638-IT1 / RFU, PANK3 / Fold change vs veh, PANK3 / RFU, SH3YL1 / Fold change vs veh, SH3YL1 / RFU, ZEB2 / Fold change vs veh, ZEB2 / RFU, NRIP1 / Fold change vs veh, NRIP1 / RFU, PTTG1IP / Fold change vs veh, PTTG1IP / RFU, CAPN2 / Fold change vs veh, CAPN2 / RFU, MED14 / Fold change vs veh, MED14 / RFU, SNORA58 / Fold change vs veh, SNORA58 / RFU, C1orf63 / Fold change vs veh, C1orf63 / RFU, LRRFIP1 / Fold change vs veh, LRRFIP1 / RFU, NDUFAF7 / Fold change vs veh, NDUFAF7 / RFU, SLC12A2 / Fold change vs veh, SLC12A2 / RFU, IBTK / Fold change vs veh, IBTK / RFU, ESF1 / Fold change vs veh, ESF1 / Fold change vs veh, TMEM50B / RFU, TAOK1 / Fold change vs veh, TAOK1 / RFU, ACBD3 / Fold change vs veh, ACBD3 / RFU, TMA16 / Fold change vs veh, TMA16 / RFU, RWDD3 / Fold change vs veh, RWDD3 / RFU, BCAT1 / Fold change vs veh, BCAT1 / RFU, EDEM3 / Fold change vs veh, EDEM3 / RFU, TMEM33 / Fold change vs veh, TMEM33 / RFU, WDR75 / Fold change vs veh, WDR75 / RFU, AHCTF1 / Fold change vs veh, AHCTF1 / RFU, TFRC / Fold change vs veh, TFRC / RFU, ZDHHC17 / Fold change vs veh, ZDHHC17 / RFU, NOM1 / Fold change vs veh, NOM1 / RFU, ARL8B / Fold change vs veh, ARL8B / RFU, ZBTB11 / Fold change vs veh, ZBTB11 / RFU, TAMM41 / Fold change vs veh, TAMM41 / RFU, KIAA1704 /// LOC100996395 / Fold change vs veh, KIAA1704 /// LOC100996395 / RFU, ING1 / Fold change vs veh, ING1 / RFU, TRMT61B / Fold change vs veh, TRMT61B / RFU, FUBP3 / Fold change vs veh, FUBP3 / RFU, TP53 / Fold change vs veh, TP53 / RFU, TNKS2 / Fold change vs veh, TNKS2 / RFU, ZFP14 / Fold change vs veh, ZFP14 / RFU, ACTR2 / Fold change vs veh, ACTR2 / RFU, PPP3R1 / Fold change vs veh, PPP3R1 / RFU, PIK3R1 / Fold change vs veh, PIK3R1 / RFU, HNRNPA1 / Fold change vs veh, HNRNPA1 / RFU, RNF170 / Fold change vs veh, RNF170 / RFU, ZNF28 / Fold change vs veh, ZNF28 / RFU, RNGTT / Fold change vs veh, RNGTT / RFU, OGT / Fold change vs veh, OGT / RFU, BRD1 / Fold change vs veh, BRD1 / RFU, MARS / Fold change vs veh, MARS / RFU, ZNF655 / Fold change vs veh, ZNF655 / RFU, FAHD1 / Fold change vs veh, FAHD1 / RFU, BDP1 / Fold change vs veh, BDP1 / RFU, LRRCC1 / Fold change vs veh, LRRCC1 / RFU, ARID1A / Fold change vs veh, ARID1A / RFU, ZNF146 / Fold change vs veh, ZNF146 / RFU, ZNF330 / Fold change vs veh, ZNF330 / RFU, GPN3 / Fold change vs veh, GPN3 / RFU, C9orf123 / Fold change vs veh, C9orf123 / RFU, N4BP2L2 / Fold change vs veh, N4BP2L2 / RFU, ARFIP1 / Fold change vs veh, ARFIP1 / RFU, FAM179B / Fold change vs veh, FAM179B / RFU, BCL10 / Fold change vs veh, BCL10 / RFU, UHRF1BP1L / Fold change vs veh, UHRF1BP1L / RFU, BET1 / Fold change vs veh, BET1 / RFU, CNOT2 / Fold change vs veh, CNOT2 / RFU, ZNF268 / Fold change vs veh, ZNF268 / Fold change vs veh, ZNF507 / RFU, DGCR2 / Fold change vs veh, DGCR2 / RFU, WDSUB1 / Fold change vs veh, WDSUB1 / Fold change vs veh, HSP90B1 /// MIR3652 / RFU, ADSS / Fold change vs veh, ADSS / RFU, GK / Fold change vs veh, GK / RFU, ZNF148 / Fold change vs veh, ZNF148 / RFU, TAF9 / Fold change vs veh, TAF9 / RFU, SLC1A5 / Fold change vs veh, SLC1A5 / RFU, SLMO2 / Fold change vs veh, SLMO2 / RFU, ABCC4 / Fold change vs veh, ABCC4 / RFU, LOC101060439 /// RAP1B / Fold change vs veh, LOC101060439 /// RAP1B / RFU, RFX7 / Fold change vs veh, RFX7 / RFU, GTPBP10 / Fold change vs veh, GTPBP10 / RFU, CNEP1R1 / Fold change vs veh, CNEP1R1 / RFU, BIVM-ERCC5 /// ERCC5 / Fold change vs veh, BIVM-ERCC5 /// ERCC5 / RFU, ILF3 / Fold change vs veh, ILF3 / RFU 11762660_at / Fold change /veh 11762660_at / RFU VCAN (11757783_s_at) / Fold change /veh VCAN (11757783_s_at) / RFU DDX43 (11728927_at) / Fold change /veh DDX43 (11728927_at) / RFU KRT8 (11758188_x_at) / Fold change /veh KRT8 (11758188_x_at) / RFU NKD1 (11759106_at) / Fold change /veh NKD1 (11759106_at) / RFU SRD5A1 (11742802_a_at) / Fold change /veh SRD5A1 (11742802_a_at) / RFU TPSAB1 /// TPSB2 (11721975_s_at) / Fold change /veh TPSAB1 /// TPSB2 (11721975_s_at) / RFU GSTM3 (11746129_a_at) / Fold change /veh GSTM3 (11746129_a_at) / RFU IL23R (11737362_x_at) / Fold change /veh IL23R (11737362_x_at) / RFU TMEM51 (11727254_a_at) / Fold change /veh TMEM51 (11727254_a_at) / RFU PIWIL2 (11732686_x_at) / Fold change /veh PIWIL2 (11732686_x_at) / RFU ORM1 (11744905_x_at) / Fold change /veh ORM1 (11744905_x_at) / RFU CCDC152 (11743942_at) / Fold change /veh CCDC152 (11743942_at) / RFU ECM1 (11717891_a_at) / Fold change /veh ECM1 (11717891_a_at) / RFU IL23R (11748794_a_at) / Fold change /veh IL23R (11748794_a_at) / RFU TNFAIP8L3 (11732012_x_at) / Fold change /veh TNFAIP8L3 (11732012_x_at) / RFU MBOAT4 (11741988_at) / Fold change /veh MBOAT4 (11741988_at) / RFU 11764193_at / Fold change /veh 11764193_at / RFU TMEM53 (11763286_at) / Fold change /veh TMEM53 (11763286_at) / RFU MAGEB2 (11727129_at) / Fold change /veh MAGEB2 (11727129_at) / RFU TMEM200A (11744735_a_at) / Fold change /veh TMEM200A (11744735_a_at) / RFU CCDC152 (11751479_a_at) / Fold change /veh CCDC152 (11751479_a_at) / RFU FAM211A (11726209_a_at) / Fold change /veh FAM211A (11726209_a_at) / RFU RGS16 (11746705_a_at) / Fold change /veh RGS16 (11746705_a_at) / RFU VCAN (11755009_s_at) / Fold change /veh VCAN (11755009_s_at) / RFU RHOB (11743442_s_at) / Fold change /veh RHOB (11743442_s_at) / RFU RGS16 (11720943_a_at) / Fold change /veh RGS16 (11720943_a_at) / RFU RGS16 (11720944_at) / Fold change /veh RGS16 (11720944_at) / RFU, VPS4B / Fold change vs veh, VPS4B / RFU, CREB1 / Fold change vs veh, CREB1 / RFU, DNAJC13 / Fold change vs veh, DNAJC13 / RFU, GNAQ / Fold change vs veh, GNAQ / RFU, CDK5R1 / Fold change vs veh, CDK5R1 / RFU, ZRANB3 / Fold change vs veh, ZRANB3 / RFU, CUL4A / Fold change vs veh, CUL4A / RFU, CCNY / Fold change vs veh, CCNY / RFU, UFL1 / Fold change vs veh, UFL1 / RFU, COG3 / Fold change vs veh, COG3 / RFU, DIAPH2 / Fold change vs veh, DIAPH2 / RFU, SKA2 / Fold change vs veh, SKA2 / RFU, AFF3 / Fold change vs veh, AFF3 / RFU, LMF1 / Fold change vs veh, LMF1 / RFU, IPO11 / Fold change vs veh, IPO11 / RFU, DFFB / Fold change vs veh, DFFB / RFU, FOXP1 / Fold change vs veh, FOXP1 / RFU, CARD8 / Fold change vs veh, CARD8 / RFU, STRN3 / Fold change vs veh, STRN3 / RFU, ADK / Fold change vs veh, ADK / RFU, RASSF2 / Fold change vs veh, RASSF2 / RFU, WIPF1 / Fold change vs veh, WIPF1 / RFU, LARP1B / Fold change vs veh, LARP1B / RFU, RASA1 / Fold change vs veh, RASA1 / RFU, RB1 / Fold change vs veh, RB1 / RFU, PPFIA1 / Fold change vs veh, PPFIA1 / RFU, MAT2A / Fold change vs veh, MAT2A / RFU, CCT5 / Fold change vs veh, CCT5 / RFU, WDR92 / Fold change vs veh, WDR92 / RFU, CUX1 / Fold change vs veh, CUX1 / RFU, TTC7A / Fold change vs veh, TTC7A / RFU, TMEM135 / Fold change vs veh, TMEM135 / RFU, DEPTOR / Fold change vs veh, DEPTOR / RFU, CPM / Fold change vs veh, CPM / RFU, DNAJB6 / Fold change vs veh, DNAJB6 / RFU, CACNA2D3 / Fold change vs veh, CACNA2D3 / RFU, DTX4 / Fold change vs veh, DTX4 / RFU, TFCP2 / Fold change vs veh, TFCP2 / RFU, GMCL1 /// GMCL1P1 / Fold change vs veh, GMCL1 /// GMCL1P1 / RFU, AEBP2 / Fold change vs veh, AEBP2 / RFU, SNHG1 /// SNORD22 /// SNORD25 /// SNORD26 /// SNORD27 /// SNORD28 /// SNORD29 /// SNORD31 / Fold change vs veh, SNHG1 /// SNORD22 /// SNORD25 /// SNORD26 /// SNORD27 /// SNORD28 /// SNORD29 /// SNORD31 / Fold change (Aza/veh), C12orf56 (ProbeSet 11735607_a_at) / Fold change (ACY-1035/veh), C12orf56 (ProbeSet 11735607_a_at) / Fold change (Aza/veh), FGFR1OP (ProbeSet 11751329_s_at) / Fold change (ACY-1035/veh), FGFR1OP (ProbeSet 11751329_s_at) / Fold change (Aza/veh), VPS36 (ProbeSet 11739960_a_at) / Fold change (ACY-1035/veh), VPS36 (ProbeSet 11739960_a_at) / RFU SYPL1 (11715823_x_at) / Fold change /veh SYPL1 (11715823_x_at) / RFU IGFBP7 (11715501_s_at) / Fold change /veh IGFBP7 (11715501_s_at) / RFU REEP3 (11722064_at) / Fold change /veh REEP3 (11722064_at) / RFU IGLL1 (11728026_x_at) / Fold change /veh IGLL1 (11728026_x_at): dose or concentration left out as unconfirmed",
  "settings": "MV-4-11 cells, 48 hours",
  "data": [
    {"smiles": "Nc1ncn([C@@H]2O[C@H](CO)[C@@H](O)[C@H]2O)c(=O)n1", "note": "[azacitidine]", "values": [
      {"measurement": "RFU ACY1 (11761880_at)", "value": 18.62, "unit": "RFU"}
    ]}
  ]
}
